Positions of bridges follow the written chain, without caps; N, C: chain ends. Non-standard residues stand in square brackets, D forms with d. Residues, ends and D or L forms follow the SMILES beside them. *: point of attachment. X1 = NC[C@@H](CC(=O)*)c1cccc(Cl)c1; Dab = NCC[C@H](N)C(=O)O; Dap = NC[C@H](N)C(=O)O
Key:
healthy subjects = assay: Safety and tolerability (adverse events, laboratory tests, ECG), first-in-human SAD/MAD study, 1-h i.v. infusion; type: in vivo
Method: This was a single-center, phase 1, randomized, double-blind, placebo-controlled, first-in-human study to assess the safety, tolerability, and PK of SPR206 following SAD and MAD administrations (Fig. 7). In the SAD phase, subjects received a single i.v. dose of SPR206, and in the MAD phase, subjects received i.v. doses of SPR206 every 8 h (q8h) over a period of 7 to 14 days. SPR206 was administered as a 1 h i.v. infusion.
In the SAD phase, healthy subjects were screened within 28 days prior to dosing and admitted to the clinical facility on day −1. A single i.v. dose of SPR206 or placebo was administered on day 1. Following completion of all safety assessments and sampling for PK analyses, subjects were discharged on day 2. A follow-up visit occurred 5 to 7 days after day 1 dosing.
In the SAD phase, subjects were randomized to one of seven cohorts consisting of 10-, 25-, 50-, 100-, 200-, 300-, and 400-mg doses of SPR206. Within each cohort, two subjects received placebo and six subjects received SPR206. Two subjects (sentinels) were dosed with SPR206 or placebo 48 h prior to the remaining subjects. The remaining six subjects were only dosed after no safety concerns were identified in the sentinel subjects. After each dose cohort had completed study drug dosing and safety evaluations, a safety monitoring group (SMG) reviewed blinded cumulative safety data (including day 5 to 7 follow-up data) to confirm the safety and tolerability of SPR206. Blood and urine samples were collected for assessment of PK parameters.
In the MAD phase, all subjects were admitted to the clinical facility on day −1. Dosing commenced on the morning of day 1. Three doses were administered daily at approximately 8 (±0.5)-hour intervals for a total of 7 consecutive days (cohorts 9 through 12) and 14 consecutive days (cohort 13). The last dose was administered on the morning of day 14. Subjects were discharged on day 16 following completion of all PK sample collection and safety assessments, and a follow-up visit occurred 12 to 14 days after the last dose.
The MAD phase began after completion of the SAD phase, and the appropriate starting dose level was established. Two subjects received placebo, and six subjects received SPR206 doses of 25, 50, 100, and 150 mg q8h for 7 days and 100 mg q8h for 14 days. In each cohort of the MAD, two subjects (sentinels) began dosing with SPR206 or placebo 72 h prior to the remaining subjects in this cohort. The remaining six subjects were only dosed after no safety concerns were identified by the principal investigator. After each MAD dose cohort had completed administration of study drug and all evaluations, the safety monitoring group reviewed blinded cumulative safety data (including the day 19 to 21 follow-up data) to confirm the safety and tolerability of the study drug. Blood and urine samples were collected to measure SPR206 drug levels to determine SPR206 PK parameters.
Safety assessments included clinical laboratory testing (hematology, coagulation, serum chemistry, urinalysis), vital signs (blood pressure, heart rate, body temperature, respiratory rate), physical examination, and triplicate 12-lead ECG to assess corrected QT interval by Fredericia (QTcF). In the SAD phase, continuous cardiac monitoring was performed from 1 h predose through 24 h postdose. Adverse events were recorded at each study visit.
Serum creatinine concentrations were measured from the clinical laboratory tests performed on days −1 and 15. Urine creatinine concentration were measured using 24 h collections prior to the first dose on day 1 and over 24 to 48 h following the start of infusion of the last dose (day 14).

[1] = in vivo; cited from earlier work
[2] = MAD, 25 mg q8h × 7 days (n = 6)
[3] = MAD, 50 mg q8h × 7 days (n = 6)
[4] = MAD, 100 mg q8h × 7 days (n = 6)
[5] = MAD, 100 mg q8h × 14 days (n = 6)
[6] = MAD, 150 mg q8h × 7 days (n = 6)
[7] = SAD, single i.v. dose 10 mg (n = 6)
[8] = SAD, single i.v. dose 50 mg (n = 6)
[9] = SAD, single i.v. dose 100 mg (n = 6)
[10] = SAD, single i.v. dose 200 mg (n = 6)
[11] = SAD, single i.v. dose 400 mg (n = 6)

## CC(C)C[C@@H]1NC(=O)[C@@H](Cc2ccccc2)NC(=O)[C@H](CCN)NC(=O)[C@@H](NC(=O)[C@H](CN)NC(=O)[C@@H](NC(=O)C[C@H](CN)c2cccc(Cl)c2)[C@@H](C)O)CCNC(=O)[C@H]([C@@H](C)O)NC(=O)[C@H](CCN)NC(=O)[C@H](CCN)NC1=O [SPR206] (X1-T[Dap][Dab][Dab][dF]L[Dab][Dab]T; lactam 3-C (inferred))
Healthy subjects; [2]
  At least one treatment-related adverse event: 1 (16.7) No. (%) of subjects
  TEAE Infusion site phlebitis: 0 No. (%) of subjects
Healthy subjects; [3]
  TEAE Headache: 2 (33.3) No. (%) of subjects
  TEAE Infusion site phlebitis: 1 (16.7) No. (%) of subjects
  TEAE Paresthesia oral: 2 (33.3) No. (%) of subjects
Healthy subjects; [4]
  TEAE Headache: 2 (33.3) No. (%) of subjects
  TEAE Infusion site phlebitis: 1 (16.7) No. (%) of subjects
  TEAE Paresthesia oral: 1 (16.7) No. (%) of subjects
Healthy subjects; [5]
  TEAE Dizziness: 2 (33.3) No. (%) of subjects
  TEAE Headache: 1 (16.7) No. (%) of subjects
  TEAE Infusion site phlebitis: 1 (16.7) No. (%) of subjects
  TEAE Paresthesia oral: 1 (16.7) No. (%) of subjects
Healthy subjects; [6]
  TEAE Constipation: 1 (16.7) No. (%) of subjects
  TEAE Dry mouth: 2 (33.3) No. (%) of subjects
  TEAE Infusion site phlebitis: 2 (33.3) No. (%) of subjects
  TEAE Paresthesia oral: 2 (33.3) No. (%) of subjects
  TEAE leading to drug withdrawal: 2 (33.3) No. (%) of subjects
Healthy subjects; [7]
  At least one treatment-emergent adverse event: 1 (16.7) No. (%) of subjects
  At least one treatment-related adverse event: 1 (16.7) No. (%) of subjects
Healthy subjects; [8]
  At least one treatment-emergent adverse event: 1 (16.7) No. (%) of subjects
  At least one treatment-related adverse event: 1 (16.7) No. (%) of subjects
Healthy subjects; [9]
  At least one treatment-emergent adverse event: 1 (16.7) No. (%) of subjects
  At least one treatment-related adverse event: 1 (16.7) No. (%) of subjects
Healthy subjects; [10]
  At least one treatment-emergent adverse event: 2 (33.3) No. (%) of subjects
  At least one treatment-related adverse event: 2 (33.3) No. (%) of subjects
Healthy subjects; [11]
  TEAE Diarrhea: 2 (33.3) No. (%) of subjects
  TEAE Fatigue: 2 (33.3) No. (%) of subjects
  TEAE Paresthesia: 1 (16.7) No. (%) of subjects
Healthy subjects; human, in vivo
  effect on renal function (serum creatinine and creatinine clearance): no clinically significant effect on renal function
Healthy subjects; in vivo
  AEs of mild severity: 84 % of all AEs
  changes in vital signs, physical examination, or ECG parameters: no clinically significant changes
  effect on liver function: no clinically significant effect on liver function
  effect on the ECG: no effect on the ECG
  serious AEs: No serious AEs
  severe AEs: no severe AEs
  subjects with paresthesia events considered nervous system disorders: 7.4%
[1]
  accumulation after repeat dosing: no apparent accumulation

From paper PMC8448162, “Single- and Multiple-Ascending-Dose Study of the Safety, Tolerability, and Pharmacokinetics of the Polymyxin Derivative SPR206” (Antimicrobial Agents and Chemotherapy, 2021)
